Laboratory results: patent US20160009693A1, “HERBICIDAL COMPOUNDS” (SYNGENTA LIMITED, priority 2013, published 2016)

Legend:
Format in all cases: in vivo
Details in all cases: applied at 1000 g/h, evaluated after 13 days
[1] = tested on: Amaranthus retoflexus (AMARE); assay: Herbicidal glasshouse test, pre-emergence, AMARE
How it was run: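 This pre-emergence glasshouse herbicide test used Amaranthus retoflexus sown in standard soil. After one day of cultivation, an aqueous spray made from the technical ingredient in 50:50 acetone/water with 0.5% Tween 20 was applied. Pots stayed at 24/16° C., 14 hours light, 65% humidity, with twice-daily watering. Damage was rated on a five point scale (1=0-19% up to 5=80-100%).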

[2] = tested on: Ipomoea hederacea (IPOHE); assay: Herbicidal glasshouse test, post-emergence, IPOHE
[3] = tested on: Echinochloa crus-galli (ECHCG); assay: Herbicidal glasshouse test, post-emergence, ECHCG
How it was run: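 In this post-emergence glasshouse test, barnyard grass (ECHCG) was cultivated for 8 days under controlled conditions (24/16° C. day/night, 14 hours light, 65% humidity). It was then sprayed with an aqueous solution of the technical compound in acetone / water (50:50) with 0.5% Tween 20. Plants were kept under the same conditions and watered twice daily. After 13 days, percentage damage was rated on a five point scale (5=80-100%; 1=0-19%).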

[4] = tested on: Amaranthus retoflexus (AMARE); assay: Herbicidal glasshouse test, post-emergence, AMARE
How it was run: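 This post-emergence glasshouse test used AMARE plants raised in standard soil for 8 days under controlled conditions (24/16° C. day/night, 14 hours light, 65% humidity). Foliage was sprayed with formulated compound in acetone/water (50:50) containing 0.5% Tween 20. Plants were then watered twice daily, and after 13 days percentage damage was rated on a five point scale.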

[5] = tested on: Ipomoea hederacea (IPOHE); assay: Herbicidal glasshouse test, pre-emergence, IPOHE
Setaria faberi (SETFA) [6] = assay: Herbicidal glasshouse test, post-emergence, SETFA
How it was run: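 This post-emergence glasshouse herbicide test used potted Setaria faberi. Plants were cultivated for 8 days under controlled conditions (24/16° C. day/night, 14 hours light, 65% humidity) and then treated with an aqueous spray made from an acetone/water (50:50) solution containing 0.5% Tween 20. After 13 days of further growth with twice-daily watering, damage was rated on a five point scale (5=80-100%; 1=0-19%).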

Setaria faberi (SETFA) [7] = assay: Herbicidal glasshouse test, pre-emergence, SETFA
Solanum nigrum (SOLNI) [8] = assay: Herbicidal glasshouse test, post-emergence, SOLNI
Solanum nigrum (SOLNI) [9] = assay: Herbicidal glasshouse test, pre-emergence, SOLNI
How it was run: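 This pre-emergence glasshouse herbicide test used Solanum nigrum sown in standard soil. One day after sowing, pots were sprayed with the compound in acetone/water (50:50) with 0.5% Tween 20. They were then grown at 24/16° C., with 14 hours light and 65% humidity, and watered twice daily. Percentage damage was scored after 13 days on a five point scale, where 5=80-100% and 1=0-19%.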

[10] = tested on: Alopecurus myosuroides (ALOMY); assay: Herbicidal glasshouse test, post-emergence, ALOMY
[11] = tested on: Alopecurus myosuroides (ALOMY); assay: Herbicidal glasshouse test, pre-emergence, ALOMY
[12] = tested on: Echinochloa crus-galli (ECHCG); assay: Herbicidal glasshouse test, pre-emergence, ECHCG
How it was run: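 In this pre-emergence glasshouse test, ECHCG seeds sown in pots of standard soil were sprayed one day after sowing with the test material in acetone/water (50:50) containing 0.5% Tween 20. Plants were kept at 24/16° C., 14 hours light, 65% humidity, and watered twice daily. Percentage damage was rated after 13 days on a 1–5 scale.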

Row | SMILES | PRE Application AMARE, percentage damage (five point scale) [1] | POST Application IPOHE, percentage damage (five point scale) [2] | POST Application ECHCG, percentage damage (five point scale) [3] | POST Application AMARE, percentage damage (five point scale) [4] | PRE Application IPOHE, percentage damage (five point scale) [5] | POST Application SETFA, percentage damage (five point scale) (Setaria faberi (SETFA) [6]) | PRE Application SETFA, percentage damage (five point scale) (Setaria faberi (SETFA) [7]) | POST Application SOLNI, percentage damage (five point scale) (Solanum nigrum (SOLNI) [8]) | PRE Application SOLNI, percentage damage (five point scale) (Solanum nigrum (SOLNI) [9]) | POST Application ALOMY, percentage damage (five point scale) [10] | PRE Application ALOMY, percentage damage (five point scale) [11] | PRE Application ECHCG, percentage damage (five point scale) [12]
1 | Cn1nnnc1NC(=O)c1nn(C)c(=O)n(Cc2ccc(F)cc2)c1=O [Compound 1.073] | 5 (5=80-100%) | 5 (5=80-100%) | 3 (3=40-59%) | 5 (5=80-100%) | 5 (5=80-100%) | 2 (2=20-39%) | 1 (1=0-19%) | 5 (5=80-100%) | 5 (5=80-100%) | 2 (2=20-39%) | 5 (5=80-100%) | 5 (5=80-100%)
2 | Cc1cc(C)cc(Cn2c(=O)c(C(=O)Nc3nnnn3C)nn(C)c2=O)c1 [Compound 1.074] | 5 (5=80-100%) | 2 (2=20-39%) | 3 (3=40-59%) | 5 (5=80-100%) | 3 (3=40-59%) | 1 (1=0-19%) | 1 (1=0-19%) | 5 (5=80-100%) | 5 (5=80-100%) | 4 (4=60-79%) | 5 (5=80-100%) | 4 (4=60-79%)
3 | Cc1cc(Cn2c(=O)c(C(=O)Nc3nnnn3C)nn(C)c2=O)ccc1F [Compound 1.075] | 5 (5=80-100%) | 5 (5=80-100%) | 3 (3=40-59%) | 5 (5=80-100%) | 5 (5=80-100%) | 1 (1=0-19%) | 1 (1=0-19%) | 5 (5=80-100%) | 5 (5=80-100%) | 2 (2=20-39%) | 5 (5=80-100%) | 5 (5=80-100%)
4 | Cn1nnnc1NC(=O)c1nn(C)c(=O)n(Cc2cccc(F)c2C(F)(F)F)c1=O [Compound 1.076] | 5 (5=80-100%) | 5 (5=80-100%) | 5 (5=80-100%) | 5 (5=80-100%) | 5 (5=80-100%) | 5 (5=80-100%) | 5 (5=80-100%) | 5 (5=80-100%) | 5 (5=80-100%) | 5 (5=80-100%) | 5 (5=80-100%) | 5 (5=80-100%)
5 | COc1ccc(F)c(Cn2c(=O)c(C(=O)Nc3nnnn3C)nn(C)c2=O)c1Cl [Compound 1.077] | 3 (3=40-59%) | 4 (4=60-79%) | 4 (4=60-79%) | 3 (3=40-59%) | 4 (4=60-79%) | 2 (2=20-39%) | 2 (2=20-39%) | 4 (4=60-79%) | 4 (4=60-79%) | 4 (4=60-79%) | 4 (4=60-79%) | 4 (4=60-79%)
6 | Cc1cc(Cn2c(=O)c(C(=O)Nc3nnnn3C)nn(C)c2=O)cc(C)c1F [Compound 1.078] | 5 (5=80-100%) | 5 (5=80-100%) | 4 (4=60-79%) | 5 (5=80-100%) | 2 (2=20-39%) | 2 (2=20-39%) | 1 (1=0-19%) | 5 (5=80-100%) | 5 (5=80-100%) | 2 (2=20-39%) | 2 (2=20-39%) | 2 (2=20-39%)
7 | Cn1nnnc1NC(=O)c1nn(C)c(=O)n(Cc2cccc(C(F)F)c2)c1=O [Compound 1.079] | 5 (5=80-100%) | 5 (5=80-100%) | 5 (5=80-100%) | 5 (5=80-100%) | 4 (4=60-79%) | 2 (2=20-39%) | 1 (1=0-19%) | 5 (5=80-100%) | 5 (5=80-100%) | 4 (4=60-79%) | 5 (5=80-100%) | 5 (5=80-100%)
8 | Cn1nnnc1NC(=O)c1nn(C)c(=O)n(Cc2ccc(SC(F)(F)F)cc2)c1=O [Compound 1.080] | 5 (5=80-100%) | 5 (5=80-100%) | 4 (4=60-79%) | 5 (5=80-100%) | 5 (5=80-100%) | 5 (5=80-100%) | 5 (5=80-100%) | 5 (5=80-100%) | 5 (5=80-100%) | 5 (5=80-100%) | 5 (5=80-100%) | 5 (5=80-100%)
9 | COc1ccc([N+](=O)[O-])cc1Cn1c(=O)c(C(=O)Nc2nnnn2C)nn(C)c1=O [Compound 1.081] | 5 (5=80-100%) | 5 (5=80-100%) | 4 (4=60-79%) | 5 (5=80-100%) | 5 (5=80-100%) | 4 (4=60-79%) | 2 (2=20-39%) | 5 (5=80-100%) | 5 (5=80-100%) | 5 (5=80-100%) | 5 (5=80-100%) | 5 (5=80-100%)
